In brackets after ≈: the same amount, converted by molar mass.
Key:
[1] = Cytotoxicity against human HuH7 cells assessed as inhibition of cell survival after 24 hrs by MTT assay; format: functional, cell-based; settings: Huh-7, 24 h
[2] = Cytotoxicity against human UW228-2 cells assessed as inhibition of cell survival after 24 hrs by MTT assay; format: functional, cell-based; settings: UW228-2, 24 h
MDA-MB-231 [3] = assay: Cytotoxicity against human MDA-MB-231 cells assessed as inhibition of cell survival at 25 ug/ml after 24 hrs by MTT assay; format: functional; settings: MDA-MB-231, 24 h
HeLa [4] = assay: Cytotoxicity against human HeLa cells assessed as inhibition of cell survival at 25 ug/ml after 24 hrs by MTT assay; format: functional
Daoy [5] = assay: Cytotoxicity against human DaOY cells assessed as inhibition of cell survival at 25 ug/ml after 24 hrs by MTT assay; format: functional
Daoy [6] = assay: Cytotoxicity against human DaOY cells assessed as inhibition of cell survival after 24 hrs by MTT assay; format: functional, cell-based
HeLa [7] = assay: Cytotoxicity against human HeLa cells assessed as inhibition of cell survival after 24 hrs by MTT assay; format: functional, cell-based
[8] = Cytotoxicity against human UW228-2 cells assessed as inhibition of cell survival at 25 ug/ml after 24 hrs by MTT assay; format: functional; settings: UW228-2, 24 h
[9] = Cytotoxicity against human HuH7 cells assessed as inhibition of cell survival at 25 ug/ml after 24 hrs by MTT assay; format: functional; settings: Huh-7, 24 h
MDA-MB-231 [10] = assay: Cytotoxicity against human MDA-MB-231 cells assessed as inhibition of cell survival after 24 hrs by MTT assay; format: functional, cell-based; settings: MDA-MB-231, 24 h

Compound | IC50 [1] [µg/mL] | IC50 [2] [µg/mL] | inhibition at 25 µg/mL (MDA-MB-231 [3]) [%] | inhibition at 25 µg/mL (HeLa [4]) [%] | inhibition at 25 µg/mL (Daoy [5]) [%] | IC50 (Daoy [6]) [µg/mL] | IC50 (HeLa [7]) [µg/mL] | inhibition at 25 µg/mL [8] [%] | inhibition at 25 µg/mL [9] [%] | IC50 (MDA-MB-231 [10]) [µg/mL]
COc1ccc2c(c1)/C(=N/n1c(-c3ccc(C)cc3)nc3ccccc3c1=O)C(=O)N2 | 22.8 (≈ 55.6 µM) | 20.8 (≈ 50.7 µM) | 35.4 | 68 | 82.8 | 3.61 (≈ 8.8 µM) | 9.89 (≈ 24.1 µM) | 58.9 | 53.6 | 
COc1ccc2c(c1)/C(=N/NC(=O)c1ccccc1NC(=O)c1ccc(C)cc1)C(=O)N2 | 4.6 (≈ 10.7 µM) | 5.82 (≈ 13.6 µM) | 59.4 | 80.3 | 77.2 | 4.42 (≈ 10.3 µM) | 8.09 (≈ 18.9 µM) | 84.8 | 81.6 | 10.9 (≈ 25.4 µM)
Cc1ccc(-c2nc3ccccc3c(=O)n2/N=C2\C(=O)Nc3ccc([N+](=O)[O-])cc32)cc1 |  |  | 23.6 | 52.9 | 58.8 | 11.7 (≈ 27.4 µM) | 21.1 (≈ 49.7 µM) | 22.8 | 0 | 
Cc1cc(Br)cc2c1NC(=O)/C2=C1\SC(=S)NC1=O | 8.18 (≈ 23 µM) | 16.4 (≈ 46.2 µM) | 52.5 | 57.6 | 64.8 | 8.12 (≈ 22.9 µM) | 13.5 (≈ 38 µM) | 51.4 | 61.8 | 19.7 (≈ 55.5 µM)
Cc1ccc(-c2nc3ccccc3c(=O)n2/N=C2\C(=O)Nc3ccccc32)cc1 |  |  | 24.7 | 42.3 | 41.4 |  |  | 9.3 | 2.9 | 
Cc1ccc(C(=O)Nc2ccccc2C(=O)N/N=C2\C(=O)Nc3ccc([N+](=O)[O-])cc32)cc1 | 11.6 (≈ 26.2 µM) |  | 30.2 | 26.8 | 75.8 | 6.61 (≈ 14.9 µM) |  | 38.5 | 55.2 | 
Cc1ccc(-c2nc3ccccc3c(=O)n2/N=C2\C(=O)Nc3ccc(Cl)cc32)cc1 | 3.76 (≈ 9.06 µM) | 5.7 (≈ 13.7 µM) | 78.1 | 80.8 | 75.4 | 1.46 (≈ 3.52 µM) | 8.6 (≈ 20.7 µM) | 88 | 83.3 | 4.8 (≈ 11.6 µM)
Cc1ccc2c(c1)/C(=N/NC(=O)c1ccccc1NC(=O)c1ccc([N+](=O)[O-])cc1)C(=O)N2 | 19.3 (≈ 43.5 µM) | 9.62 (≈ 21.7 µM) | 40.8 | 46.1 | 62.7 | 11.9 (≈ 26.7 µM) |  | 58.7 | 55.8 | 
O=C1Nc2ccccc2/C1=N/NC(=O)c1ccccc1NC(=O)c1ccc([N+](=O)[O-])cc1 |  | 20 (≈ 46.6 µM) | 44.9 | 55 | 79.1 | 2.72 (≈ 6.33 µM) | 16.5 (≈ 38.5 µM) | 51.8 | 48.6 | 
O=C1Nc2ccc([N+](=O)[O-])cc2/C1=N/n1c(-c2cccs2)nc2ccccc2c1=O |  |  | 0 | 0 | 18.4 |  |  | 0 | 0 | 
Cc1ccc(C(=O)Nc2ccccc2C(=O)N/N=C2\C(=O)Nc3ccccc32)cc1 | 5 (≈ 12.5 µM) | 6.06 (≈ 15.2 µM) | 46.8 | 30.4 | 72.8 | 3.94 (≈ 9.89 µM) |  | 71.7 | 56.4 | 
COc1ccc2c(c1)/C(=N/n1c(-c3cccs3)nc3ccccc3c1=O)C(=O)N2 | 19.9 (≈ 49.5 µM) | 21.4 (≈ 53.2 µM) | 13.6 | 67 | 80.5 | 3.25 (≈ 8.08 µM) | 11 (≈ 27.3 µM) | 56.4 | 62.7 | 
O=C1Nc2ccc([N+](=O)[O-])cc2/C1=N/NC(=O)c1ccccc1NC(=O)c1ccc([N+](=O)[O-])cc1 |  |  | 0 | 14.7 | 31.9 |  |  | 4.8 | 8.2 | 
O=C1Nc2ccc(Cl)cc2/C1=N/NC(=O)c1ccccc1NC(=O)c1ccc([N+](=O)[O-])cc1 |  |  | 35.5 | 31 | 36.6 |  |  | 41.6 | 43.1 | 
O=C1Nc2ccccc2/C1=N/n1c(-c2cccs2)nc2ccccc2c1=O |  |  | 10.7 | 36.2 | 69.7 | 5.4 (≈ 14.5 µM) |  | 0 | 0 | 
Cc1ccc(C(=O)Nc2ccccc2C(=O)N/N=C2\C(=O)Nc3ccc(C)cc32)cc1 |  |  | 37.7 | 46.5 | 49.1 |  |  | 23.2 | 38 | 
Cc1ccc(-c2nc3ccccc3c(=O)n2/N=C2\C(=O)Nc3ccc(C)cc32)cc1 |  |  | 34.3 | 42.8 | 47 |  |  | 2.1 | 7.2 | 
Cc1ccc2c(c1)/C(=N/n1c(-c3cccs3)nc3ccccc3c1=O)C(=O)N2 |  |  | 29.5 | 57.8 | 59.4 | 19 (≈ 49.1 µM) | 19.3 (≈ 49.9 µM) | 32.1 | 32.9 | 
Cc1ccc(C(=O)Nc2ccccc2C(=O)N/N=C2\C(=O)Nc3ccc(Cl)cc32)cc1 | 3.2 (≈ 7.39 µM) | 6.87 (≈ 15.9 µM) | 85 | 86.7 | 77.1 | 1.86 (≈ 4.3 µM) | 6.52 (≈ 15.1 µM) | 88.7 | 84.1 | 5.95 (≈ 13.7 µM)
O=C1Nc2ccc(Cl)cc2/C1=N/n1c(-c2cccs2)nc2ccccc2c1=O |  |  | 6.1 | 69.7 | 69.3 | 15.7 (≈ 38.5 µM) | 17 (≈ 41.7 µM) | 28.4 | 0 | 
COc1ccc2c(c1)/C(=N/NC(=O)c1ccccc1NC(=O)c1ccc([N+](=O)[O-])cc1)C(=O)N2 |  |  | 34.8 | 16.3 | 11.1 |  |  | 24.5 | 33.2 | 
